In patent US6399580B1, “Methods and compositions for stimulating tissue growth and epithelial moisturization” (The Regents of the University of California, priority 1994, dated 2002):

Tests used:
[1] = system: hairless mouse skin; assay: Appearance and texture of treated skin; format: in vivo; conditions: application of CBE
Method: To determine whether inhibitors of β-glucocerebrosidase would cause more profound effects than applications of exogenous GlcCER alone (examples 5&6), we next applied the specific, suicide inhibitor, bromoconduritol-B-epoxide (BrCBE) to intact hairless mouse skin (Simonsen Laboratories, Gilroy, Calif.) (Holleran, W. M. et al., J. Clin. Invest. (1993) 91:1656-1664). BrCBE (325 nmol in 20 μl propylene glycol:ethanol, 7:3 vols) was applied once daily for 0-14 days. (Holleran, W. M. et al. (1994) J. Clin. Inv. 93:1756-1764)

[2] = system: hairless mouse epidermis; assay: Epidermal / stratum corneum lipid content (HPTLC/TLC); format: in vivo
Method: Hairless mice were treated with BrCBE for 5 days as described in Example 10. The following high performance thin layer chromatograph (HPTLC) system was developed for optimal separation of ceramides and glucosylceramides for quantitation by spectrodensitometry. Extracts were applied to precleaned 10 ×20 cm HPTLC plates, 0.5 cm from lower edge of the plate and fractionated sequentially in a horizontal developmental chamber (Camag, Muttenz, Switzerland) in the following solvent systems: 1) chloroform:methanol:acetic acid (190:9:1), v/v/v) to the top, twice; 2) chloroform:methanol:acetone (76:20:4, by volume) to 30 mm. Between each development, the plate was dried for 5 minutes on a hot plate (40° C.), cooled for 2 minutes, and equilibrated in the tank with the solvents for 3 minutes. After final development, the plates were dried, cooled, dipped in charring solution (1.5% cupric sulfate in acetic acid:sulfuric acid:orthophosphoric acid:water (50:10:10:30, by volume) for 15 seconds, dried (40° .C) for 5 minutes, and then charred at 180° C. for 15 minutes. Plates were scanned with a variable wavelength scanning densitometer (Camag, Muttenz, Switzerland). Lipid amounts for each fraction were estimated using ceramides 3 and 4, and galactosylceramides 1 and 2 as reference standards (Sigma Chemical Co., St. Louis, Mo.).
The epidermal glucosylceramide content was determined in mice treated with the topical β-glucocerebrosidase inhibitors. Mice were treated with CBE for one day as described in FIG. 22. The mice were sacrificed and whole skin was excised. Subcutaneous fascia and fat were scraped off, and the samples were placed dermis side down onto […] EDTA in PBS-CMF (pH 7.4) and incubated at 37° C. for 40 min. Skin was blotted dry with a tissue and the epidermis was removed by scraping with a surgical blade. The epidermis was minced, placed into microcentrifuge vials, immediately snap frozen and stored in liquid N2 until extracted.
For extraction the tissue was soaked in 7.6 ml Bligh/Dyer extraction media (2 ml chloroform, 4 ml Methanol, 1.6 ml H2O) overnight at room temperature. The following day the tissue was shaken for 20 min. and centrifuged for 10 min. the solvent was removed and the pellet was combined with 7.6 ml Bligh/Dyer media and again shaken and centrifuged. The solvents were combined with solvent from the soaks and filtered through pre-solvent-washed Whatman 43 filter paper, 2 ml chloroform and 2 ml H2O was added to each 7.6 ml quantity of the filtrate and shaken for 10 min. The samples were then centrifuged and the upper phase discarded. The lower phase was washed with 4 ml chloroform, 4 ml MetOH, and 3.6 ml H2O (shaken for 10 min and centrifuged). The upper phase was discarded. The lower phase was dried under N2 in a 47° C. water bath. The lipid was resuspended in chloroform and weighed on the Cahn balance.
TLC was performed using 15-20 μg samples and quantitated against standard glycosylceramide and 40 μg sample for sphingolipids (Holleran, W. M. et al. (1993) J. Clin. Invest. 91:1656-1664).
Both glucosylceramide and ceramide content was then determined in lower (stratum basale) and upper (stratum spinosum, stratum granulosum and stratum corneum) epidermis (FIG. 23). Following 24 hours of CBE treatment samples were excised following treatment (as in Example 16).

[3] = system: murine epidermis; assay: Epidermal DNA synthesis, [3H]-thymidine incorporation in vivo; design: species or system mouse; conditions: CBE 750 nmol/5cm^2/day, five days; FIG. 17
[4] = system: murine epidermis; assay: Total epidermal DNA content after topical CBE; format: in vivo, mouse
Method: In addition to measuring DNA synthesis by [^3H]-thymidine incorporation, total epidermal DNA content was determined after applications of CBE. 100 μl of epidermal homogenate was obtained from mice and stored at −70° C. Samples were diluted with Hoechst buffer (pH 7.4) in duplicate. Each sample was brought up to 1 ml with Hoechst buffer. 1 ml of bisbenzimadazole (diluted 1:1000 with dist H2O) was added and samples were vortexed. Standards were prepared using 134 μg/ml calf thymus DNA diluted 1:10 with Hoechst buffer. Final concentration of DNA ranged from 0.067 to 0.335 μg. All samples and standards were covered for 2 hours and absorbance at […] was determined (LaBarca, C. and Paigan (1980) Anal. Biochem. 102:344-352).

[5] = one day of CBE treatment, FIG. 23

O[C@H]1[C@H](O)[C@@H](O)[C@@H]2O[C@@H]2[C@@H]1O (racemic) [CBE, conduritol-B-epoxide]
thickness, firmness and pliability of murine skin [1]: increased | level of glucosylceramide, higher in treated samples ([2]; 20 μl of 250 nmol/μl CBE tid x5d, 250 mm^2 skin sample): 34-147% | level of glucosylceramide, higher in treated samples ([2]; 40 μl of 250 nmol/μl CBE tid x3d, 500 mm^2 skin sample): 57-152% | epidermal glucosylceramide content ([2]; one day of CBE application, FIG. 22): invariably increased | ceramide levels of upper and lower epidermis [2, 5]: not significantly altered | glucosylceramide content of upper and lower epidermis [2, 5]: significant increase | proliferative index, CBE-treated over control epidermis ([3H]-thymidine incorporation) [3]: approximately 1.6 | DNA concentration, higher than untreated samples ([4]; 24 hours following CBE treatment, FIG. 20 & 21): 6-81% | DNA concentration, higher than untreated samples ([4]; 3 days of CBE-treatment, FIG. 19): 45-113% | DNA concentration, higher than untreated skin samples ([4]; 5 days of CBE-treatment, FIG. 18): 46-331%
